This assay has as its system SN12K1 renal. Briefly: DTP human tumour cell line panel, 48 h.

This passage reports GI50 and TGI results from PubChem BioAssay (NCI).

Structures are written as SMILES. Values joined by “and” are separate entries in the source; they are usually repeats but may differ in a detail not shown here. Equal values may be shown once.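 Assay format: 96-well plates, 48-hour exposure. GI50 = concentration required for 50% inhibition of growth. TGI denotes the concentration required for complete inhibition of growth.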

In general, GI50 refers to the concentration at which growth is held to half of that of the control. The term TGI denotes the concentration giving total growth inhibition. High values mean less potent growth arrest, low ones more potent growth arrest. Take `Nc1ccn([C@@H]2C=C(CO)[C@@H](O)[C@H]2O)c(=O)n1`: the GI50 was 0.0625 µM; the TGI is 83.8 µM and 160 µM.
